Measurements taken from US20240208992A1, “MACROCYCLES AS CFTR MODULATORS” (Idorsia Pharmaceuticals Ltd, priority 2021, published 2024).

Biological target: human F508del-CFTR (Homo sapiens, UniProt P13569, DEL508-508)
Assay: F508del-CFTR cell surface expression (corrector activity), DiscoveRx ß-galactosidase complementation chemiluminescence assay in recombinant U2OS cell line;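 note: U2OS cells co-expressing ProLink-tagged F508del-CFTR and a membrane-anchored enzyme acceptor, where more surface CFTR restores β-galactosidase activity measured by chemiluminescence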
Settings: U2OS cell line, 16h compound incubation; for EC50: EC50, F508del-CFTR cell surface expression, geomean values; for Emax: U2OS, in relation to the Emax of the corrector lumacaftor (=100%), arithmetic mean values

Sequence of human F508del-CFTR (P13569 with tags, fused parts or gaps DEL508-508): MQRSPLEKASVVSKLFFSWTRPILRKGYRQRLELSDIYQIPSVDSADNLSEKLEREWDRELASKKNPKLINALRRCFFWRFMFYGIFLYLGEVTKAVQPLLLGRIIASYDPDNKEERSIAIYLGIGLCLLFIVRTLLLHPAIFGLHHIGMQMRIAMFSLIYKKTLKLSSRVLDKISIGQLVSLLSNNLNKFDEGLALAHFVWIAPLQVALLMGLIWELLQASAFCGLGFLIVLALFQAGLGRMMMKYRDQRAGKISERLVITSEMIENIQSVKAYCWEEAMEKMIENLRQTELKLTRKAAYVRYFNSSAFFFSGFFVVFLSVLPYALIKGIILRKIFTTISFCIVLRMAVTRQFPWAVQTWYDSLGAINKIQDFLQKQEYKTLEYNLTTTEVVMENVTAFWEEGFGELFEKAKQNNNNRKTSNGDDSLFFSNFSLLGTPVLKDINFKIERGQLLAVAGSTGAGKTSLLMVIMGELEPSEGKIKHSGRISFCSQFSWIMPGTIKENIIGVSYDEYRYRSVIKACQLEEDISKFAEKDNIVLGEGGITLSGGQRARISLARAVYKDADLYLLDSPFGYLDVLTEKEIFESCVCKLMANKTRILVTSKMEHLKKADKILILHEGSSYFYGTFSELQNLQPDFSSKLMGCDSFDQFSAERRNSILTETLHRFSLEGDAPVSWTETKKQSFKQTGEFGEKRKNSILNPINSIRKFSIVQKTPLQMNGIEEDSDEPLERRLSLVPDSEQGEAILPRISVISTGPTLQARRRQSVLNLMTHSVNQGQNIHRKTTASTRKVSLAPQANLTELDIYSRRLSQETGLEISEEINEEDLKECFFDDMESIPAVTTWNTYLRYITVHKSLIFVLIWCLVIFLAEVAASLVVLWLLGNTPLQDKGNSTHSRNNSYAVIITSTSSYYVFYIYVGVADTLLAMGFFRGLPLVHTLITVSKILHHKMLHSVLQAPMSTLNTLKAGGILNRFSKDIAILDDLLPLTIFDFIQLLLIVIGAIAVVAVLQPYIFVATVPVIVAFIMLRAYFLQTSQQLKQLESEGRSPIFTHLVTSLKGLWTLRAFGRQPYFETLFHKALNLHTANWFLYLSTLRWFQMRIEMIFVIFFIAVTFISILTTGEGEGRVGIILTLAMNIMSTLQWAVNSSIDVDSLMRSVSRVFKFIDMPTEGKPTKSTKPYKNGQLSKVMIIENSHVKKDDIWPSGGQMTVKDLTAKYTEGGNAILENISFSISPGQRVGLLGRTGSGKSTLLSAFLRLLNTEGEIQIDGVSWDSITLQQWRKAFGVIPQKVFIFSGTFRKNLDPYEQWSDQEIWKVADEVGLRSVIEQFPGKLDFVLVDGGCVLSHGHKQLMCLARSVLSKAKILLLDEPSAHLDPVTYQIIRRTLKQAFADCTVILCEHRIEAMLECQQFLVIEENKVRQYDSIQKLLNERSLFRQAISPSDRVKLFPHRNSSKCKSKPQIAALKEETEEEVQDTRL

Row | Emax [%] | SMILES | EC50 [nM]
1 | 130 | COc1cccc2c1C(=O)N[C@H](C(=O)NCC[C@H]1CCCCO1)CC(=O)N(C)[C@@H](CC(C)C)C(=O)N(CCC1CCCCC1)CC(=O)N[C@H](Cc1ccccc1)CO2 (racemic) [Example 212, (3R,9S,13S)-3-benzyl-7-(2-cyclohexylethyl)-9-isobutyl-16-methoxy-10-methyl-5,8,11,15-tetraoxo-N-(2-((RS)-tetrahydro-2H-pyran-2-yl)ethyl)-2,3,4,5,6,7,8,9,10,11,12,13,14,15-tetradecahydrobenzo[p][1]oxa[4,7,10,14]tetraazacycloheptadecine-13-carboxamide] | 292
2 | 136 | CN1C(=O)C[C@@H](C(=O)NCCc2ccc3c(c2)OCO3)NC(=O)c2c(ccc3ccccc23)OC[C@@H](Cc2ccccc2)NC(=O)CN(C[C@@H]2CCCCO2)C(=O)[C@@H]1CC1CCCC1 (racemic) [Example 284, (3RS,7S,13R)-N-(2-(benzo[d][1,3]dioxol-5-yl)ethyl)-13-benzyl-7-(cyclopentylmethyl)-6-methyl-1,5,8,11-tetraoxo-9-(((S)-tetrahydro-2H-pyran-2-yl)methyl)-1,2,3,4,5,6,7,8,9,10,11,12,13,14-tetradecahydronaphtho[1,2-p][1]oxa[4,7,10,14]tetraazacycloheptadecine-3-carboxamide] | 
3 | 118 | CN1C(=O)C[C@@H](C(=O)NCCc2ccc3c(c2)OCO3)NC(=O)c2c(ccc3ccccc23)OC[C@@H](Cc2ccccc2)NC(=O)CN(C[C@@H]2CCCCO2)C(=O)[C@@H]1CC1CCCCC1 (racemic) [Example 285, (3RS,7S,13R)-N-(2-(benzo[d][1,3]dioxol-5-yl)ethyl)-13-benzyl-7-(cyclohexylmethyl)-6-methyl-1,5,8,11-tetraoxo-9-(((S)-tetrahydro-2H-pyran-2-yl)methyl)-1,2,3,4,5,6,7,8,9,10,11,12,13,14-tetradecahydronaphtho[1,2-p][1]oxa[4,7,10,14]tetraazacycloheptadecine-3-carboxamide] | 
4 | 144 | CN1C(=O)C[C@@H](C(=O)NCCc2ccc3c(c2)OCO3)NC(=O)c2c(ccc3ccccc23)OC[C@@H](Cc2ccccc2)NC(=O)CN(C[C@H]2CCCCO2)C(=O)[C@@H]1CC1CCCC1 (racemic) [Example 286, (3RS,7S,13R)-N-(2-(benzo[d][1,3]dioxol-5-yl)ethyl)-13-benzyl-7-(cyclopentylmethyl)-6-methyl-1,5,8,11-tetraoxo-9-(((R)-tetrahydro-2H-pyran-2-yl)methyl)-1,2,3,4,5,6,7,8,9,10,11,12,13,14-tetradecahydronaphtho[1,2-p][1]oxa[4,7,10,14]tetraazacycloheptadecine-3-carboxamide] | 

Row | SMILES | Emax [%] | EC50 [nM]
5 | COc1cccc2c1C(=O)N[C@H](C(=O)NCC[C@H]1COc3ccccc3O1)CC(=O)N(C)[C@@H](CC(C)C)C(=O)N(CCC1CCCCC1)CC(=O)N[C@H](Cc1ccccc1)CO2 (racemic) [Example 213, (3R,9S,13S)-3-benzyl-7-(2-cyclohexylethyl)-N-(2-((RS)-2,3-dihydrobenzo[b][1,4]dioxin-2-yl)ethyl)-9-isobutyl-16-methoxy-10-methyl-5,8,11,15-tetraoxo-2,3,4,5,6,7,8,9,10,11,12,13,14,15-tetradecahydrobenzo[p][1]oxa[4,7,10,14]tetraazacycloheptadecine-13-carboxamide] | 100 | 292
6 | COc1ccc(CCNC(=O)[C@@H]2CC(=O)N(C)[C@@H](CC(C)C)C(=O)N(CCC3CCCCC3)CC(=O)N[C@H](Cc3ccccc3)COc3cccc(OC)c3C(=O)N2)cc1 (racemic) [Example 219, (3R,9S,13RS)-3-benzyl-7-(2-cyclohexylethyl)-9-isobutyl-16-methoxy-N-(4-methoxyphenethyl)-10-methyl-5,8,11,15-tetraoxo-2,3,4,5,6,7,8,9,10,11,12,13,14,15-tetradecahydrobenzo[p][1]oxa[4,7,10,14]tetraazacycloheptadecine-13-carboxamide] | 182 | 206
